Usually IC50 stands for the concentration that inhibits the measured activity by half.

Holding throughout (format): protein assay
Experiment [1] addresses T1, Opioid receptor (Rattus norvegicus, UniProt P33533+P34975+P33535). The experiment in a line: Compound was tested for its ability to displace [3H]naloxone from Opioid receptors in absence of NaCl.
The target of experiment [2] is T1, Opioid receptor. Nature of the experiment: Compound was tested for its ability to displace [3H]naloxone from Opioid receptors in presence of NaCl (100 mM).
Experiment [3] has as its target T1, Opioid receptor. Nature of the experiment: Compound was tested for its ability to displace [3H]- naloxone] from Opioid receptors in presence of NaCl (100 mM).
Experiment [4] has as its target T1, Opioid receptor. Nature of the experiment: Compound was tested for its ability to displace [3H]- naloxone] from Opioid receptors in absence of NaCl.

For `CCC1C2Cc3ccc(O)cc3C1(CC)CCN2C(=O)C(N)CC(C)C` (centres undefined), the IC50 in experiment [1] was determined as 1.503 µM; in experiment [2], 6.384 µM.
In the case of `CC[C@H]1[C@H]2Cc3ccc(O)cc3[C@]1(CC)CCN2`, the IC50 in experiment [3] was 0.36 µM; in experiment [4], 0.02 µM.
As for `CCC1C2Cc3ccc(O)cc3C1(CC)CCN2C(=O)C(N)CCCN=C(N)N.Cl` (centres undefined), the IC50 in experiment [1] was 0.0155 µM; in experiment [2], 0.66 µM.
For the molecule `CCC1C2Cc3ccc(O)cc3C1(CC)CCN2C(=O)C(N)CCSC.Cl` (centres undefined), the IC50 in experiment [1] worked out at 0.301 µM; in experiment [2], 5.586 µM.
The matching figures for `CCC1C2Cc3ccc(O)cc3C1(CC)CCN2C(=O)CN.Cl` (centres undefined): 0.287 µM and 8.184 µM.
The matching figures for `CCC1C2Cc3ccc(O)cc3C1(CC)CCN2C(=O)C(N)Cc1ccccc1.Cl` (stereo in doubt; 2d): 1.54 µM and 3.35 µM.
The matching figures for `CCC1C2Cc3ccc(O)cc3C1(CC)CCN2C(=O)C(N)Cc1ccccc1.Cl` (stereo in doubt; 2e): above 10 µM and above 10 µM.
